Data on six compounds can be found in paper PMC8260228, “Two de novo GluN2B mutations affect multiple NMDAR-functions and instigate severe pediatric encephalopathy” (eLife, 2021).

The target in experiment [1] is T1, hGluN1a + hGluN2Bwt (Homo sapiens, UniProt Q05586+Q13224). As to the kind of experiment: Assessing potentiation by D-serine, TEVC in oocytes. The conditions noted are these: 100 μM D-serine, 5 mM glutamate, 1 μM glycine.
The subject of experiment [2] is GluN1. On the set-up: method as in Traynelis et al., 2010. To be noted: ref Traynelis et al., 2010; cited from earlier work.
The target of experiment [3] is T1, hGluN1a + hGluN2Bwt. As to the kind of experiment: Glutamate dose-response, TEVC in Xenopus oocytes. In kind it is cell-based. On the set-up: expressed in transfected cells; host or cells: Xenopus laevis oocytes injected with in vitro transcribed mRNA (pCI-Neo plasmids produced by the Traynelis lab). The source says: All Experiments were approved by the Technion Institutional Animal Care and Use Committee (permit SB, no. IL-129-09-17). Xenopus laevis oocytes were harvested, prepared, and injected with mRNA as previously described ([Berlin et al., 2020]). Briefly, oocytes were obtained from anesthetized (by 0.4% tricaine solution) female frogs. Oocytes were extracted from ovaries, defolliculated by collagenase treatment in ND96 Ca^+2-free solution (in mM: 96 NaCl, 2 KCL, 1 MgCl2, 5 HEPES, pH 7.4) for about 45 min at RT. Cells were washed with ND96 Ca^+2 -free and transferred to enriched ND96 (NDE) consisting of ND96 supplemented with 1.8 mM CaCl2, 2.5 mM sodium pyruvate, 100 μg/ml streptomycin and 62.75 μg/ml penicillin. Stage V oocytes were manually isolated, incubated overnight at 18°C and injected with mRNA the next day.
For mRNA preparation, DNA plasmids were linearized by restriction enzymes (NotI), followed by in vitro mRNA transcription using mMessage-mMachine T7 kit (Thermo Scientific, Cat.#AM1344), as previously described ([Berlin et al., 2010]). mRNA concentrations were determined using a spectrophotometer. […]
Data were analyzed by Clampfit software (Molecular Devices, USA) and were fitted using Sygmaplot 11 (Systat software, inc) to Hill’s equation (Equation 1) from which we extracted EC50 values.

Experiment [4] deals with GluN2B-E413G. The arrangement: method as in Swanger et al., 2016. To be noted: read-out: glutamate potency EC50; ref Swanger et al., 2016; cited from earlier work.
The subject of experiment [5] is GluN2B-mutant. The arrangement: method as in Soto et al., 2019. To be noted: ref Soto et al., 2019; cited from earlier work.
The test system of experiment [6] is GRIN2A mutation D731N. The arrangement: method as in Swanger et al., 2016. To be noted: ref Swanger et al., 2016; cited from earlier work.
Experiment [7] concerns the target T1, hGluN1a + hGluN2Bwt. The conditions noted are these: read-out: Glycine EC50; 5 mM glutamate. The procedure: Two electrode voltage clamp (TEVC) recordings were carried-out 24–72 hr following mRNA injections, as previously described ([Berlin et al., 2011]). Recordings were performed using commercial amplifier (Warner Instruments, USA) and Digitizer (Digidata-1550B; Molecular Devices, USA), controlled by pClamp10 software (Molecular Devices, USA). Electrodes consisted of pulled glass capillaries (by puller- Narishige, Japan) with chlorinated silver wire, filled with 3M KCl. Oocytes were clamped to −60 mV and perfused with nominally Mg^+2-free barth solution (in mM): 100 NaCl, 0.3 BaCl2, 5 HEPES, pH 7.3 (adjusted with NaOH).
Data were analyzed by Clampfit software (Molecular Devices, USA) and were fitted using Sygmaplot 11 (Systat software, inc) to Hill’s equation (Equation 1) from which we extracted EC50 values. […] IC50 values for Mg^+2 and proton inhibition were extrapolated by fitting the results to Hill’s equation (Equation 4). τoff values for apparent open probability were extrapolated by fitting the result to a mono-exponential function (Equation 5). t10-90% results were obtained by placing cursors at beginning and end of responses, then automatically assessed by the Clampfit software (under statistics, positive going). mEPSCs were detected off-line using pCLAMP 10’s template search. Briefly, 5–10 ‘minis’ were identified and selected by user, followed by an automated search. […]

The target in experiment [8] is T1, hGluN1a + hGluN2Bwt. As to the kind of experiment: Apparent open probability: MK-801 block kinetics, TEVC in oocytes. The format is cell-based. The arrangement: expressed in transfected cells; host or cells: Xenopus laevis oocytes injected with in vitro transcribed mRNA (pCI-Neo plasmids produced by the Traynelis lab). To be noted: 1 μM MK-801 after 3 mM glutamate, 100 μM glycine. How it is done: MK-801 (activity-dependent pore blocker of GluNRs) was purchased from Alomone labs (cat.# M-230). One mM stock solutions were made by diluting lyophilized MK-801 in barth solution. […] Deactivation kinetics were fitted from which we extracted t10-90% or deactivation constant, τoff.
Data were analyzed by Clampfit software (Molecular Devices, USA) and were fitted using Sygmaplot 11 (Systat software, inc) to Hill’s equation (Equation 1) from which we extracted EC50 values. […] IC50 values for Mg^+2 and proton inhibition were extrapolated by fitting the results to Hill’s equation (Equation 4). τoff values for apparent open probability were extrapolated by fitting the result to a mono-exponential function (Equation 5). t10-90% results were obtained by placing cursors at beginning and end of responses, then automatically assessed by the Clampfit software (under statistics, positive going). mEPSCs were detected off-line using pCLAMP 10’s template search. Briefly, 5–10 ‘minis’ were identified and selected by user, followed by an automated search. All automatically identified minis were validated by user.

The target in experiment [9] is T1, hGluN1a + hGluN2Bwt. Nature of the experiment: Mg2+ dose-response (block), TEVC in Xenopus oocytes. On the set-up: expressed in transfected cells; host or cells: Xenopus laevis oocytes injected with in vitro transcribed mRNA (pCI-Neo plasmids produced by the Traynelis lab). In kind it is cell-based. To be noted: 5 mM glutamate, 100 μM glycine, −60 mV; read-out: Mg^+2 IC50 (−60 mV).

The target of experiment [10] is T1, hGluN1a + hGluN2Bwt. How it is done:
With the intent to rescue (i.e. increase) current amplitudes, we turned our attention toward spermine— a naturally-occurring and highly specific GluN2B-subunit potentiator ([Mony et al., 2009]; [Mony et al., 2011]). […] To further address this issue we employed arcaine-sulfate (a competitive antagonist of the polyamine site [[Gomes et al., 2014]; [Araneda et al., 1999]; [Reynolds, 1990]]).
Spermine was purchased from Sigma-Aldrich (Cat. #S3256). A total of 200 mM stock solutions were made by diluting powdered spermine in barth solution at different pHs (6.3 and 7.3). […] Arcaine sulfate was purchased from Alomone labs (Cat. # 14923-17-2). Ten mM solutions were made by diluting lyophilized Arcaine sulfate in barth solution at pH = 6.5.

The subject of experiment [11] is GluN2B-subunit. The conditions noted are these: read-out: spermine reported EC50; ref Mony et al., 2011; cited from earlier work.

One may read the EC50 as the concentration that produces a half-maximal response. For orientation: IC50 means the concentration that inhibits the measured activity by half.

Molecules are shown by their SMILES. Like-named read-outs stand apart in the source and are kept apart here. Bounds are passed on as bounds.

T1 sequence (Q13224 27-1484, other chains not shown): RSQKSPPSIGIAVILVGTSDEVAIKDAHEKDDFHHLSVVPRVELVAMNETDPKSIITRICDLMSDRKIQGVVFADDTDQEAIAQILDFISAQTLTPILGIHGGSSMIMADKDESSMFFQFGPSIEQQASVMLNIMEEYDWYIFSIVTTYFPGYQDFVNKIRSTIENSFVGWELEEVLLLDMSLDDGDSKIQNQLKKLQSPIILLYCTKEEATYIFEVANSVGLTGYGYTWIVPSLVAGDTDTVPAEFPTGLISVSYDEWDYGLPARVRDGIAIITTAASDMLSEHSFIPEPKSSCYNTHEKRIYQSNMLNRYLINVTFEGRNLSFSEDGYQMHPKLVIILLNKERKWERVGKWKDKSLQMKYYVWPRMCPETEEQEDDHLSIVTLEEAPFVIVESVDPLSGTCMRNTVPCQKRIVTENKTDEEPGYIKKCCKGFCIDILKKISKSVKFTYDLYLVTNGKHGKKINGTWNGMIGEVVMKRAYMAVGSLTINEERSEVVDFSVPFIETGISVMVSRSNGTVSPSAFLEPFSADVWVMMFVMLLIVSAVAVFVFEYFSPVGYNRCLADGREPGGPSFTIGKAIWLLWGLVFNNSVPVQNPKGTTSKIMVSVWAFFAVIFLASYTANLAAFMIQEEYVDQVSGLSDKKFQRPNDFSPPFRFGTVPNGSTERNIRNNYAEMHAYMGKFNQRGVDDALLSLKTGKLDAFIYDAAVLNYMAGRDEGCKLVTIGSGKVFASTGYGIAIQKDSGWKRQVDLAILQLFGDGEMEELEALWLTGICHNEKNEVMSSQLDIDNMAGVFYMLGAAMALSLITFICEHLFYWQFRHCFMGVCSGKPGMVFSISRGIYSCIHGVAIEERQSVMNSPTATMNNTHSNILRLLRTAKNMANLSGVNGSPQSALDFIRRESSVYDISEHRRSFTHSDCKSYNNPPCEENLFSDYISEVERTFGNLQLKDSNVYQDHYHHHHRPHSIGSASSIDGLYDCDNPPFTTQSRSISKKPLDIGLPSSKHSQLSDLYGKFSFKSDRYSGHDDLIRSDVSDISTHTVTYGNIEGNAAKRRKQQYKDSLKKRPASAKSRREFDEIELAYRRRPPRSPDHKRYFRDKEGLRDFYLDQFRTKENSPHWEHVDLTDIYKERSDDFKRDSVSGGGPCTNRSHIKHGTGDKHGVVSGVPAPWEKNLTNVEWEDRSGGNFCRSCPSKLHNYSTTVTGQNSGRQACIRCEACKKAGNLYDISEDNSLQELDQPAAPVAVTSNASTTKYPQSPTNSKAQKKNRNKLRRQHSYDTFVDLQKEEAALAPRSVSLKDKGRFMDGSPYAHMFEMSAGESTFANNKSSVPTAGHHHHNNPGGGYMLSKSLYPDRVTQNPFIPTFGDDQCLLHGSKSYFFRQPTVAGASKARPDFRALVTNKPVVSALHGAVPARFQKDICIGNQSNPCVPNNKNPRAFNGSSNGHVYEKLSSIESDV

For the compound `N[C@H](CO)C(=O)O` [D-serine], the “increase of the maximal current by D-serine” value in experiment [1] is ~ 35%. Also, in experiment [2], the EC50 was roughly 0.7 µM.
For `N[C@@H](CCC(=O)O)C(=O)O` [Glutamate, glutamate], the “Imax Norm. to wt” value in [3] (normalized maximal glutamate current, oocytes) was 1 ± 0.08; (22). Besides, in experiment [3] (receptors saturated at 100 μM glutamate), the “contribution to the total current by excess glutamate >100 μM” value is on record as less than 15%. Besides, the EC50 in [4] was 79 ± 5.3 µM. Further, in experiment [5], the “reduction in EC50” value is ~ 7 fold. Besides, the “reduction in glutamate potency” value in experiment [6] is recorded as ~ 6000 fold.
On to `NCC(=O)O` [Glycine, glycine], for which the EC50 is 0.23 ± 0.03 µM in experiment [7] and […] in experiment [2].
As to `C[C@]12N[C@H](Cc3ccccc31)c1ccccc12` [MK-801], the “10–90% inhibition rate” value in experiment [8] is given as 8554 ± 827 ms; (24). Also, the τoff in [8] (mono-exponential fit) is given as 4590 ± 603 ms; (24).
For the compound `[Mg+2]` [Mg^+2], the IC50 in experiment [9] was 31 ± 3.7 µM.
For `NCCCNCCCCNCCCN` [spermine], the potentiation by spermine is recorded as ~ 25 fold in experiment [10] (200 μM spermine, pH 6.3) and ~ 70% in [10] (200 μM spermine, pH 7.3). Moreover, in experiment [10] (200 μM spermine, pH 7.3, 5 mM glutamate, 100 μM glycine), the “current with spermine relative to basal glutamate current” value came to 172%. The “inhibition by higher spermine concentrations” value in experiment [10] (pH 7.3) was “not observed”. In addition, in experiment [11], the EC50 is 200 µM.
